# According to ChEMBL document CHEMBL1158811, “Echinamines A and B, first aminated hydroxynaphthazarins from the sea urchin Scaphechinus mirabilis” (J Nat Prod, 2005):
# Test system: Radical scavenging activity
# Assay: Antioxidant activity assessed as DPPH radical scavenging activity
# Assay type: functional
row,Structure (SMILES),EC50 [µM]
1,O=C1C(O)=C(O)C(=O)c2c(O)c(O)cc(O)c21 [SPINOCHROME D],10
2,CCc1c(O)c(O)c2c(c1O)C(=O)C(N)=C(O)C2=O [ECHINAMINE B],10
3,CCc1c(O)c(O)c2c(c1O)C(=O)C(O)=C(N)C2=O [ECHINAMINE A],10
4,CCC1=C(O)C(=O)c2c(O)c(O)c(O)c(O)c2C1=O [ECHINOCHROME A],10
